In patent US4528287A, “6-Fluoro-1, 4-dihydro-4-oxo-7-substituted piperazinylquinoline-3-carboxylic acids and the method for preparing the same” (priority 1983, dated 1985):
In brackets after ≈: the same amount, converted by molar mass. Read-outs that look alike come from different tables or passages of the source.

How the values were obtained:
[1] = tested on: Bacillus subtilis ATCC6633; experiment: MIC, twofold agar dilution; type: cell-based; conditions: Gram +, 10^6 cells/ml, 18 hrs, 37° C., read-out: Minimum inhibitory concentration (MIC)
Description: (§1) Minimum inhibitory concentrations (MIC) were determined by the twofold agar dilution method (Chemotherapy, 29(1), 76(1981)). Overnight cultures in Mueller-Hinton broth were suspended by buffered saline gelatine. One loopful of the bacterial suspension (10^6 or 10^8 colony-forming units/ml) was incubated onto the test compound-containing plates. The plates were incubated for 18 hrs. at 37° C. The MIC was the lowest concentration of the drug that inhibited visible growth.

[2] = tested on: Enterobacter aerogenes ATCC13048; experiment: MIC, twofold agar dilution; type: cell-based; conditions: Klebsiella aerogenes, Gram -, 10^6 cells/ml, 18 hrs, 37° C., read-out: Minimum inhibitory concentration (MIC)
Description: as §1

[3] = tested on: Enterobacter cloaceas 963; experiment: MIC, twofold agar dilution; type: cell-based; conditions: Gram -, 10^6 cells/ml, 18 hrs, 37° C., read-out: Minimum inhibitory concentration (MIC)
Description: as §1

[4] = tested on: Escherichia coli K-12 C600; experiment: MIC, twofold agar dilution; type: cell-based; conditions: K12C600, Gram -, 10^6 cells/ml, 18 hrs, 37° C., read-out: Minimum inhibitory concentration (MIC)
Description: as §1

[5] = tested on: Escherichia coli NIHJ-JC-2; experiment: MIC, twofold agar dilution; type: cell-based; conditions: NIHJJC2, Gram -, 10^6 cells/ml, 18 hrs, 37° C., read-out: Minimum inhibitory concentration (MIC)
Description: as §1

[6] = tested on: Klebsiella pneumoniae PCI-602; experiment: MIC, twofold agar dilution; type: cell-based; conditions: PCI602, 18 h, read-out: Minimum inhibitory concentration (MIC)
Description: as §1

[7] = tested on: Micrococcus luteus ATCC9341; experiment: MIC, twofold agar dilution; type: cell-based; conditions: Gram +, 10^6 cells/ml, 18 hrs, 37° C., read-out: Minimum inhibitory concentration (MIC)
Description: as §1

[8] = tested on: Proteus mirabilis IFO3849; experiment: MIC, twofold agar dilution; type: cell-based; conditions: Gram -, 10^6 cells/ml, 18 hrs, 37° C., read-out: Minimum inhibitory concentration (MIC)
Description: as §1

Proteus morganii IFO3848 = experiment: MIC, twofold agar dilution; type: cell-based; conditions: Morganella morganii, Gram -, 10^6 cells/ml, 18 hrs, 37° C., read-out: Minimum inhibitory concentration (MIC)
Description: as §1

Proteus rettgeri IFO3850 = experiment: MIC, twofold agar dilution; type: cell-based; conditions: Providencia rettgeri, Gram -, 10^6 cells/ml, 18 hrs, 37° C., read-out: Minimum inhibitory concentration (MIC)
Description: as §1

Proteus vulgalis HX-19 = experiment: MIC, twofold agar dilution; type: cell-based; conditions: Gram -; 10^6 cells/ml; 18 hrs, 37° C.; read-out: Minimum inhibitory concentration (MIC)
Description: as §1

Proteus vulgalis OX-19 = experiment: MIC, twofold agar dilution; type: cell-based; conditions: Gram -; 10^6 cells/ml; 18 hrs, 37° C.; read-out: Minimum inhibitory concentration (MIC)
Description: as §1

[9] = tested on: Pseudomonas aeruginosa ATCC9027; experiment: MIC, twofold agar dilution; type: cell-based; conditions: Gram -, 10^6 cells/ml, 18 hrs, 37° C., read-out: Minimum inhibitory concentration (MIC)
Description: as §1

[10] = tested on: Pseudomonas aeruginosa IFO3445; experiment: MIC, twofold agar dilution; type: cell-based; conditions: Gram -, 10^6 cells/ml, 18 hrs, 37° C., read-out: Minimum inhibitory concentration (MIC)
Description: as §1

[11] = tested on: Pseudomonas aeruginosa NCTC10490; experiment: MIC, twofold agar dilution; type: cell-based; conditions: Gram -, 10^6 cells/ml, 18 hrs, 37° C., read-out: Minimum inhibitory concentration (MIC)
Description: as §1

[12] = tested on: Pseudomonas aeruginosa PAO7; experiment: MIC, twofold agar dilution; type: cell-based; conditions: Gram -, 10^6 cells/ml, 18 hrs, 37° C., read-out: Minimum inhibitory concentration (MIC)
Description: as §1

[13] = tested on: Salmonella enteritidis G14; experiment: MIC, twofold agar dilution; type: cell-based; conditions: Salmonella enterica, Gram -, 10^6 cells/ml, 18 hrs, 37° C., read-out: Minimum inhibitory concentration (MIC)
Description: as §1

[14] = tested on: Salmonella paratyphi 1015; experiment: MIC, twofold agar dilution; type: cell-based; conditions: Salmonella enterica, 18 h, read-out: Minimum inhibitory concentration (MIC)
Description: as §1

[15] = tested on: Salmonella schottmulleri 0006; experiment: MIC, twofold agar dilution; type: cell-based; conditions: Gram -, 10^6 cells/ml, 18 hrs, 37° C., read-out: Minimum inhibitory concentration (MIC)
Description: as §1

Salmonella typhi 901 = experiment: MIC, twofold agar dilution; type: cell-based; conditions: Salmonella enterica, 18 h, read-out: Minimum inhibitory concentration (MIC)
Description: as §1

[16] = tested on: Salmonella typhimurium IID 971; experiment: MIC, twofold agar dilution; type: cell-based; conditions: Salmonella enterica; Gram -; 10^6 cells/ml; 18 hrs, 37° C.; read-out: Minimum inhibitory concentration (MIC)
Description: as §1

[17] = tested on: Serratia marcescens IAM1184; experiment: MIC, twofold agar dilution; type: cell-based; conditions: Gram -, 10^6 cells/ml, 18 hrs, 37° C., read-out: Minimum inhibitory concentration (MIC)
Description: as §1

[18] = tested on: Staphylococcus aureus FAD208PJC-1; experiment: MIC, twofold agar dilution; type: cell-based; conditions: FAD208PJC1, Gram +, 10^6 cells/ml, 18 hrs, 37° C., read-out: Minimum inhibitory concentration (MIC)
Description: as §1

[19] = tested on: Staphylococcus aureus MS-353; experiment: MIC, twofold agar dilution; type: cell-based; conditions: MS353, Gram +, 10^6 cells/ml, 18 hrs, 37° C., read-out: Minimum inhibitory concentration (MIC)
Description: as §1

[20] = tested on: Staphylococcus aureus Terajima; experiment: MIC, twofold agar dilution; type: cell-based; conditions: Gram +, 10^6 cells/ml, 18 hrs, 37° C., read-out: Minimum inhibitory concentration (MIC)
Description: as §1

[21] = tested on: Streptococcus pyogenes Cook; experiment: MIC, twofold agar dilution; type: cell-based; conditions: Gram +, 10^6 cells/ml, 18 hrs, 37° C., read-out: Minimum inhibitory concentration (MIC)
Description: as §1

[22] = Urinary excretion in rats after oral dosing (bioassay with Escherichia coli NIHJ-JC-2); type: in vivo, SD strain); conditions: rat, male SD rats, 20 mg/Kg per os, fasted 24 hr
Description: Male rats of SD strain, weighing 180-210 g, were used 8 animals at a group. Test compounds suspended in 0.5% carboxymethyl cellulose were administered per os to 24 hr-fasted rats at dose of 20 mg/Kg. Urine was pooled from 0 to 6 hrs. and 6 to 24 hrs, and urinary excretion was measured by bioassay using Escherichia coli NIHJ-JC-2.
The assay method employed was the cup-plate method using
Escherichia coli NIHJ-JC-2. Urine was appropriately diluted with 1/15M phosphate buffer pH7.0, before assay if necessary. Standard calibration lines were made in 1/15M phosphate buffer pH7.0.

in vivo = conditions: mouse, male ddY mice, 10 days
Description: Male mice of ddY strain, 4 weeks old, were used with 10 animals at a group. Test compounds suspended in 0.5% carboxymethyl cellulose were administered per os (p.o.) in mice. In the case of intraveneous (i.v.) administration, test compounds were solved in 0.1N-HCl solution and neutralized with 0.1N-NaOH solution.

CCn1cc(C(=O)O)c(=O)c2cc(F)c(N3CCNC(C)C3)c(F)c21 (stereo not shown) [Example 4, 1-Ethyl-6,8-difluoro-1,4-dihydro-7-(3-methyl-1-piperazinyl)-4-oxoquinoline-3-carboxylic acid]
MIC [1]: 0.1 µg/mL (≈ 0.285 µM) | MIC [2]: 0.1 µg/mL (≈ 0.285 µM) | MIC [3]: 0.1 µg/mL (≈ 0.285 µM) | MIC [4]: 0.05 µg/mL (≈ 0.142 µM) | MIC [5]: 0.05 µg/mL (≈ 0.142 µM) | MIC [6]: 0.0125 µg/mL (≈ 0.0356 µM) | MIC [7]: 6.25 µg/mL (≈ 17.8 µM) | MIC [8]: 0.2 µg/mL (≈ 0.569 µM) | MIC (Proteus morganii IFO3848): 0.025 µg/mL (≈ 0.0712 µM) | MIC (Proteus rettgeri IFO3850): 0.05 µg/mL (≈ 0.142 µM) | MIC (Proteus vulgalis HX-19): 0.025 µg/mL (≈ 0.0712 µM) | MIC (Proteus vulgalis OX-19): 0.05 µg/mL (≈ 0.142 µM) | MIC [9]: 0.05 µg/mL (≈ 0.142 µM) | MIC [10]: 0.78 µg/mL (≈ 2.22 µM) | MIC [11]: 0.78 µg/mL (≈ 2.22 µM) | MIC [12]: 1.56 µg/mL (≈ 4.44 µM) | MIC [13]: 0.05 µg/mL (≈ 0.142 µM) | MIC [14]: 0.025 µg/mL (≈ 0.0712 µM) | MIC [15]: 0.025 µg/mL (≈ 0.0712 µM) | MIC (Salmonella typhi 901): 0.0125 µg/mL (≈ 0.0356 µM) | MIC [16]: 0.05 µg/mL (≈ 0.142 µM) | MIC [17]: 0.1 µg/mL (≈ 0.285 µM) | MIC [18]: 0.38 µg/mL (≈ 1.08 µM) | MIC [19]: 0.78 µg/mL (≈ 2.22 µM) | MIC [20]: 0.78 µg/mL (≈ 2.22 µM) | MIC [21]: 3.13 µg/mL (≈ 8.91 µM) | concentration at 6 h ([22]; urine 0-6 hr, read-out: Drug Concentration in Urine 0-6 (hr)): 659 µg/mL | dose excreted at 24 h ([22]; urine 0-24 hr, read-out: Rate of Urinary Excretion 0-24 (hr)): 75% | concentration at 24 h ([22]; urine 6-24 hr, read-out: Drug Concentration in Urine 6-24 (hr)): 87 µg/mL | LD50 at 240 h (in vivo; iv, i.v., read-out: LD50 i.v. (95% Confidence Limit)): 246 mg/kg | LD50 at 240 h (in vivo; po, p.o., read-out: LD50 p.o.): > 4000 mg/kg
